Measured values reported in patent publication US20120003335A1, “CONSTITUTIVE ANDROSTANE RECEPTOR (CAR) AS A THERAPEUTIC TARGET FOR OBESITY AND TYPE TWO DIABETES” (UNIVERSITY OF PITTSBURGH-OF THE COMMONWEALTH SYSTEM OF …, priority 2008, published 2012).

Columns and labels:
[1] = tested on: ob/ob mice; experiment: Obesity in genetically leptin deficient ob/ob mice; assay type: in vivo
Text: TCPOBOP was also effective in the genetically leptin deficient and obese ob/ob mice. In this experiment, 7-week old female ob/ob mice were maintained in chow diet and treated with TCPOBOP or vehicle for eight weeks.

[2] = tested on: PPARα and its target genes; experiment: Expression of beta-oxidation genes in liver and skeletal muscle; assay type: in vivo, mice
Text: (§1) The effect of TCPOBOP on the fatty acid oxidation in the liver and skeletal muscle also was investigated. […] These include the suppression of long-chain acyl-CoA dehydrogenase (Aacdl), medium-chain acyl CoA dehydrogenase (Acadm) and HMG-CoA synthase (HMGCS2).

[3] = tested on: HFD-fed mice; experiment: Leptin and adiponectin production and food intake; assay type: in vivo
Text: Leptin is an adipokine primarily produced in WAT. […] HFD induced leptin mRNA expression as expected (FIG. 8A). […] The decreased production of leptin may have resulted from decreased fat mass, and the inhibition of food intake may have contributed to the anti-obesity effect.

[4] = tested on: lipogenic genes (Srebp-1c, Acc-1, Fas, Scd-1) and gluconeogenic enzymes (G6p, Pepck); experiment: Lipogenic and gluconeogenic gene expression in tissues of HFD-fed mice; assay type: in vivo
Text: To understand the mechanisms by which CAR inhibits obesity and improves insulin sensitivity, gene expression was profiled in several relevant tissues, including the liver, skeletal muscle, white adipose tissue (WAT) and brown adipose tissue (BAT) in HFD-fed C57BL/6J mice treated with TCPOBOP for one week.
Since excessive VLDL production and triglyceride secretion contribute to the pathogenesis of hypertriglyceridemia, obesity and diabetes, VLDL secretion rate after a 5-week TCPOBOP treatment also was evaluated. […] The inhibition of VLDL secretion was consistent with the lower serum triglyceride level (data not shown) and inhibition of hepatic lipogenesis (FIG. 5A) in these animals.

[5] = tested on: HFD-fed mice; experiment: Hepatic steatosis, adipose tissue size and adipocyte morphology; assay type: in vivo; conditions: treated five weeks
[6] = tested on: gastrocnemius muscle derived from HFD-fed mice; experiment: Mitochondrial β-oxidation rate in gastrocnemius muscle ([14C]-oleate)
Text: as §1

[7] = tested on: HFD-fed C57BL/6j mice; experiment: Fasting serum glucose and lipid profile, HFD-fed mice; assay type: in vivo
Text: (§2) Since obesity is strongly associated with insulin resistance, a typical characteristic of type two diabetes, whether the CAR agonist can also improve insulin sensitivity was examined. […] The insulin sensitizing effect of TCPOBOP was also evident in ob/ob mice (FIGS. 3C and 3D).

[8] = tested on: HFD-fed C57BL/6J male mice; experiment: Insulin sensitivity by GTT and ITT, HFD-fed mice; assay type: in vivo; conditions: five weeks treatment
Text: as §2

[9] = tested on: Cyp2b10; conditions: 0.5 mg/kg once a week
[10] = tested on: BAT genes involved in energy expenditure; experiment: BAT energy expenditure gene expression and oxygen consumption; design: species or system mice; conditions: mouse, in vivo
Text: BAT plays an important role in regulating energy expenditure. The smaller BAT in TCPOBOP-treated mice prompted an examination of the expression of BAT genes involved in energy expenditure.

[11] = tested on: adipose triglyceride lipase (ATGL), hormone sensitive lipase (HSL); experiment: Lipase expression in WAT; design: species or system mice; conditions: mouse, in vivo
[12] = tested on: C57BL/6J mice fed with high fat diet (HFD); experiment: Prevention of high fat diet-induced obesity (body weight, MRI body composition); assay type: in vivo; conditions: male mice, HFD five weeks, 0.5 mg/kg once a week
Experimental: Eight-week male C57BL/6J mice were fed with high fat diet (HFD) for five weeks and simultaneously treated with the CAR agonist TCPOBOP (0.5 mg/kg, once a week) or vehicle (DMSO). […] The effect of TCPOBOP on the fat mass was so dramatic that the differences were obvious and significant after one week of drug treatment (FIGS. 1A-b and 1A-c). At the end of five-week treatment, the body weight differences between TCPOBOP group and vehicle group were completely accountable by the gain of fat mass in the TCPOBOP group (FIG. 1B).

[13] = tested on: HFD-fed mice; experiment: VLDL secretion rate; assay type: in vivo; conditions: after 5-week treatment
[14] = tested on: ob/ob mice; experiment: Fasting serum glucose and lipid profile, ob/ob mice; assay type: in vivo
Text: as §2

[15] = tested on: C57BL/6J female mice fed with HFD; experiment: Treatment of pre-existing HFD-induced obesity; assay type: in vivo
Experimental: To determine whether CAR activation is effective in controlling obesity in mice with pre-existing obesity, C57BL/6J female mice were fed with HFD for six weeks, followed by 6 weeks of TCPOBOP (0.5 mg/kg, once a week) treatment when mice remained on HFD.

[16] = tested on: ob/ob mice; experiment: Insulin sensitivity by GTT and ITT, ob/ob mice; assay type: in vivo
Text: as §2

[17] = tested on: CAR-/- mice; experiment: Lipogenic and gluconeogenic gene expression in CAR-/- mice; assay type: in vivo; conditions: C57BL/6J and SvJ129 mixed background, HFD five week
Text: The suppression of lipogenic and gluconeogenic gene expression was also seen in TCPOBOP-treated wild type mice of C57BL/6J and SvJ129 mixed background (data not shown).

[18] = short-term (one week) treatment
[19] = HFD-fed C57BL/6J mice, treated one week

Compound: Clc1cnc(Oc2ccc(Oc3ncc(Cl)cc3Cl)cc2)c(Cl)c1 [TCPOBOP, 1,4-bis[2-(3,5 dichloropyridyloxy)] benzene]
- gain of fat mass ([1]; 7-week old female ob/ob mice, chow diet, eight weeks treatment): less gain of fat mass
- body weight vs vehicle group ([1]; end of eight week treatment): significantly lower body weight
- fat mass ([1]; end of eight week treatment): deceased fat mass
- lean mass ([1]; end of eight week treatment): increased lean mass
- expression of PPARα and its target genes involved in β-oxidation and ketogenesis, liver and skeletal muscle ([2]; chronic (five weeks) treatment): significantly suppressed
- expression of PPARα [2, 18]: modestly suppressed
- expression of genes related to β-oxidation [2, 18]: little effect
- expression of adiponectin ([3]; HFD-fed mice): increased expression of adiponectin
- leptin mRNA level vs vehicle-treated counterparts ([3]; HFD-fed mice): dramatically lower
- leptin production at the protein level ([3]; HFD-fed mice): decreased leptin production
- food intake ([3]; mouse, in vivo): significantly reduced the food intake
- Fas and Scd-1 gene expression in skeletal muscle, BAT and WAT [4, 19]: Significant inhibition
- expression of Acc-1 in BAT [4, 19]: significantly inhibited
- expression of lipogenic genes Srebp-1c, Acc-1, Fas and Scd-1 in the liver [4, 19]: suppressed the expression of lipogenic genes
- expression of glucose-6-phosphatase (G6p) and phosphoenolpyruvate carboxykinase (Pepck) ([4]; after 5-week treatment): significantly inhibited
- adipocyte morphology [5]: adipocyte hypotrophy
- hepatic steatosis [5]: ameliorated hepatic steatosis
- sizes of abdomen WAT and BAT [5]: decreased sizes of abdomen WAT and BAT
- substrate switch on addition of pyruvate ([6]; pyruvate added to incubation buffer, vehicle mitochondria failed to switch): showed significant switch
- accumulation of radiolabeled intermediates in the acid-soluble metabolite (ASM) (incomplete β-oxidation) ([6]; vs vehicle group): much more dramatic reduction
- rate of [14C]-oleate oxidation to CO2 (complete β-oxidation) ([6]; vs vehicle group): modest, although significant, decrease
- Fasting Glucose [7]: 102.8 ± 17.7 mg/dL
- Free Fatty Acid ([7]; fasting serum): 6.8 ± 0.6 µM
- Insulin ([7]; fasting serum): 1.57 ± 0.37 ng/mL
- Total Cholesterol ([7]; fasting serum): 89.7 ± 5.3 mg/dL
- Total Triglyceride ([7]; fasting serum): 132.8 ± 17.7 mg/dL
- insulin sensitivity (GTT and ITT) [8]: significantly improved insulin sensitivity
- Cyp2b10 gene expression in the liver [9]: activation of Cyp2b10
- BAT expression of PGC-1b, mCPT-I, LCAD, D2, UCP-1, UCP-2 and UCP-3 [10]: significantly increased
- oxygen consumption [10]: increased oxygen consumption
- expression of adipose triglyceride lipase (ATGL) in WAT [11]: induced in WAT
- expression of hormone sensitive lipase (HSL) in WAT [11]: but not the hormone sensitive lipase (HSL)
- lean mass, TCPOBOP vs vehicle group [12]: not significantly different
- gain of body weight ([12]; after two weeks of drug treatment, vs vehicle (DMSO)): significantly inhibited gain of body weight
- lean to body weight ratio ([12]; ratio decreased in vehicle-treated mice): remained steady
- gain of fat mass (MRI) ([12]; vs vehicle): significantly inhibited the gain of fat mass
- VLDL secretion rate vs vehicle group [13]: significantly reduced
- Free Fatty Acid [14]: 21.4 ± 1.54 µM
- Total Cholesterol [14]: 90.2 ± 9.9 mg/dL
- Total Triglyceride [14]: 126.3 ± 13.7 mg/dL
- fat mass ([15]; HFD six weeks, then 6 weeks 0.5 mg/kg once a week on HFD): inhibition of gain of fat mass
- body weight course ([15]; HFD six weeks, then 6 weeks 0.5 mg/kg once a week on HFD, vehicle group continued to gain): stabilized the mouse body weight
- body weight vs vehicle group ([15]; after 5 weeks of drug treatment): significantly lower than the vehicle group
- insulin sensitizing effect (GTT and ITT) [16]: also evident
- expression of lipogenic and gluconeogenic genes in liver, skeletal muscle, WAT, BAT [17]: none of the lipogenic and gluconeogenic genes was significantly altered
